Laboratory results published in patent US6867185B2 (Bristol-Myers Squibb Company, priority 2001, dated 2005).
Where two headings read alike, the source gives them in different places.

Columns and labels:
[1] = rcm bond, 1,2-DCE
[2] = rcm bond, 1,2-dichloroethane
[3] = tested on: HCV replicon in Huh7 cells; test: HCV replicon cell-based assay (replicon FRET assay); parameters: species or system HCV strain 1B; settings: Hepatitis C virus, Huh-7, HCV replicon cell assay; EC50 ranges
Procedure, shortened: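 Huh7 cells carrying a genotype 1b subgenomic replicon (neo, NS3–NS5B) were treated with compound for 4 days at 37 °C in 0.5% DMSO final. Lysates with 10 μM RET S1 FRET peptide and 150 mM NaCl were read kinetically at 340/490 nm over 21 cycles. EC50 was derived as for the enzyme IC50.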

[4] = target: T1, HCV NS3/4A protease complex, BMS strain (genotype 1a) (Hepatitis C virus genotype 1a, UniProt P27958, C1454S/C1711G); test: Recombinant HCV NS3/4A protease complex FRET peptide assay (BMS strain); assay type: biochemical; settings: IC50, HCV NS3/4A protease FRET assay in vitro; IC50 ranges
T1 construct: recombinant HCV NS3/4A protease complex (amino'acids 1027 to 1711); inferred from the pET21b vector and Ni-NTA purification; made in house; host or cells: Escherichia coli BL21 (DE3), pET21b
T1 sequence (P27958 1027-1711 C1454S/C1711G, one chain of several): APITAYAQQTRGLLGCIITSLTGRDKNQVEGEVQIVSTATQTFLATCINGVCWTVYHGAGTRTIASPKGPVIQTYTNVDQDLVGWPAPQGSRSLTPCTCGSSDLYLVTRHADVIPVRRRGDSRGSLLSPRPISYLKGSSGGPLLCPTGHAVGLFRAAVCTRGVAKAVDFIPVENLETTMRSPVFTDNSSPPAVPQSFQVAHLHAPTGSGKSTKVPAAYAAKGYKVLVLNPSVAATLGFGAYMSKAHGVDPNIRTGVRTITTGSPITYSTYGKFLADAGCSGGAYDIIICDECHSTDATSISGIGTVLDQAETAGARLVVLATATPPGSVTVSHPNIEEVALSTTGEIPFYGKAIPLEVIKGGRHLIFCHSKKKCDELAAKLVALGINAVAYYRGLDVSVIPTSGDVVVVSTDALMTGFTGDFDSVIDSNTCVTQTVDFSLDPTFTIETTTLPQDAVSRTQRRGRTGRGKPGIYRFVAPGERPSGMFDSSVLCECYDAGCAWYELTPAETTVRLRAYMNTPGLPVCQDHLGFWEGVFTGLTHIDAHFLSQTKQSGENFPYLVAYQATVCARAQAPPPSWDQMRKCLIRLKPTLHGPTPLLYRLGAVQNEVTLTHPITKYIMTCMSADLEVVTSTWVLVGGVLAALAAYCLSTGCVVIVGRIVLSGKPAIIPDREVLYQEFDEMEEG
Procedure, shortened: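 Enzyme was NS3/4A complex (aa 1027-1711) from genotype 1a BMS strain, carrying C1454S and C1711G mutations plus a three-lysine tail, expressed in E. coli and Ni-NTA/size-exclusion purified to >90% purity.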

[5] = from 1-{[1-(2(S)-tert-butoxycarbonylamino-oct-7-enoyl)-4-(7-methoxy-2-phenylquinolin-4(R)-yloxy)-pyrrolidine-2(S)-carbonyl]-1(R)-amino]-2(S)-vinyl-cyclopropanecarboxylic acid ethyl ester, 14-membered ring, Grubbs catalyst (275 + 225 mg)

CCOC(=O)[C@@]12CC1/C=C/CCCC[C@H](C(=O)OC(C)(C)C)C(=O)N1C[C@H](Oc3cc(-c4ccccc4)nc4cc(OC)ccc34)C[C@@]1(N)C(=O)N2 (some centres unmarked)
ring closure, isolated yield [1, 5]: 8%

CCOC(=O)[C@@]12C[C@H]1/C=C/CC[C@H](NC(=O)OC(C)(C)C)C(=O)N1C[C@H](Oc3cc(-c4ccccc4)nc4cc(OC)ccc34)C[C@H]1C(=O)N2
ring closure, isolated yield ([1]; from 1-{[1-(2(S)-tert-butoxycarbonylamino-hex-5-enoyl)-4-(7-methoxy-2-phenyl-quinolin-4(R)-yloxy)-pyrroiidine-2(S)-carbonyl]-1(R)-amino}-2(S)-vinyl-cyclopropanecarboxylic acid ethyl ester, 12-membered ring, Grubbs catalyst (2 x 70 mg), 2.02 mM): 46%

CCOC(=O)[C@@]12C[C@H]1/C=C\CCCCC[C@H](NC(=O)OC(C)(C)C)C(=O)N1C[C@H](Oc3cc(-c4ccccc4)nc4cc(OC)ccc34)C[C@H]1C(=O)N2
ring closure, isolated yield ([1]; from 1-{[1-(2(S)-tert-butoxycarbonylamino-non-8-enoyl)-4-(7-methoxy-2-phenylquinolin-4(R)-yloxy)-pyrrolidine-2(S)-carbonyl]-1(R)-amino]-2 (5)-vinylcyclopropanecarboxylic acid ethyl ester, 15-membered ring, Grubbs catalyst (3 x 150 mg), 0.83 mM): 75%

CCOC(=O)[C@@]12C[C@H]1/C=C\CCCC[C@H](NC(=O)OC(C)(C)C)C(=O)N1C[C@H](Oc3cc(-c4ccccc4)nc4cc(OC)ccc34)C[C@H]1C(=O)N2
ring closure, isolated yield [1, 5]: 20%
ring closure, isolated yield ([1]; from 1-{[1-(2(S)-tert-butoxycarbonylamino-oct-7-enoyl)-4-(7-methoxy-2-phenylquinolin-4(R)-yloxy)pyrrolidine-2(S)-carbonyl]-1(R)-amino]-2(S)-vinylcyclopropanecarboxylic acid ethyl ester, 14-membered ring, Grubbs catalyst (150 + 140 + 140 mg), 0.77 mM): 52%

CCOC(=O)[C@@]12C[C@H]1C=CCCCCC[C@H](NC(=O)OC(C)(C)C)C(=O)N1C[C@H](Oc3cc(-c4ccccc4)nc4cc(OC)ccc34)C[C@H]1C(=O)N2
ring closure, yield of all isomers ([2]; from C=CCCCCC[C@H](NC(=O)OC(C)(C)C)C(=O)N1C[C@H](Oc2cc(-c3ccccc3)nc3cc(OC)ccc23)C[C@H]1C(=O)N[C@]1(C(=O)OCC)C[C@H]1C=C, Grubbs catalyst, 0.829 mM, 83.0 °C, 15.0 h): 75%

CCOC(=O)[C@@]12C[C@H]1C=CCCCC[C@H](NC(=O)OC(C)(C)C)C(=O)N1C[C@H](Oc3cc(-c4ccccc4)nc4cc(OC)ccc34)C[C@H]1C(=O)N2
ring closure, yield of all isomers ([2]; from C=CCCCC[C@H](NC(=O)OC(C)(C)C)C(=O)N1C[C@H](Oc2cc(-c3ccccc3)nc3cc(OC)ccc23)C[C@H]1C(=O)N[C@]1(C(=O)OCC)C[C@H]1C=C, Grubbs catalyst, 0.772 mM, 83.0 °C, 21.0 h): 52%
ring closure, yield of all isomers ([2]; from C=CCCCC[C@H](NC(=O)OC(C)(C)C)C(=O)N1C[C@H](Oc2cc(-c3ccccc3)nc3cc(OC)ccc23)C[C@H]1C(=O)N[C@]1(C(=O)OCC)C[C@H]1C=C, Grubbs catalyst, 2.02 mM, 83.0 °C, 15.0 h): 28%

CCOC(=O)[C@@]12C[C@H]1C=CCCCSC[C@@H](NC(=O)OC(C)(C)C)C(=O)N1C[C@H](Oc3cc(-c4ccccc4)nc4cc(OC)ccc34)C[C@H]1C(=O)N2
ring closure, yield of all isomers ([2]; from C=CCCCSC[C@@H](NC(=O)OC(C)(C)C)C(=O)N1C[C@H](Oc2cc(-c3ccccc3)nc3cc(OC)ccc23)C[C@H]1C(=O)N[C@]1(C(=O)OCC)C[C@H]1C=C, Grubbs II (tricyclohexylphosphine[1,3-bis(2,4,6-trimethylphenyl)-4,5-dihydroimidazol-2-ylidene][benzylidene]ruthenium(IV) dichloride), 3.48 mM, 45.0 °C, 21.0 h): 42%

CCOC(=O)[C@@]12C[C@H]1C=CCCC[C@H](NC(=O)OC(C)(C)C)C(=O)N1C[C@H](Oc3cc(-c4ccccc4)nc4cc(OC)ccc34)C[C@H]1C(=O)N2
ring closure, yield of all isomers ([2]; from C=CCCC[C@H](NC(=O)OC(C)(C)C)C(=O)N1C[C@H](Oc2cc(-c3ccccc3)nc3cc(OC)ccc23)C[C@H]1C(=O)N[C@]1(C(=O)OCC)C[C@H]1C=C, Grubbs catalyst, 2.02 mM, 83.0 °C, 15.0 h): 49%

CCOC(=O)[C@@]12C[C@H]1C=CCC[C@H](NC(=O)OC(C)(C)C)C(=O)N1C[C@H](Oc3cc(-c4ccccc4)nc4cc(OC)ccc34)C[C@H]1C(=O)N2
ring closure, yield of all isomers ([2]; from C=CCC[C@H](NC(=O)OC(C)(C)C)C(=O)N1C[C@H](Oc2cc(-c3ccccc3)nc3cc(OC)ccc23)C[C@H]1C(=O)N[C@]1(C(=O)OCC)C[C@H]1C=C, Grubbs catalyst, 2.02 mM, 83.0 °C, 15.0 h): 46%

COc1ccc2c(O[C@@H]3C[C@H]4C(=O)N[C@]5(C(=O)NS(=O)(=O)C6CC6)C[C@H]5C=CCCCCC[C@H](NC(=O)OC(C)(C)C)C(=O)N4C3)ccnc2c1
ring closure, yield of all isomers ([2]; from C=CCCCCC[C@H](NC(=O)OC(C)(C)C)C(=O)N1C[C@H](Oc2ccnc3cc(OC)ccc23)C[C@H]1C(=O)N[C@]1(C(=O)NS(=O)(=O)C2CC2)C[C@H]1C=C, Grubbs catalyst, 1.02 mM, 83.0 °C, 10.0 h): 1.9%

COc1ccc2c(O[C@@H]3C[C@H]4C(=O)N[C@]5(C(=O)NS(=O)(=O)C6CC6)CC5/C=C\CCCS(=O)(=O)C[C@H](NC(=O)OC(C)(C)C)C(=O)N4C3)cc(-c3ccccc3)nc2c1 (stereo partly drawn) [Compound 32, (1S,4R,6S,14S,18R)-7-cis-[4-Cyclopropanesulfonylaminocarbonyl-18-(7-methoxy-2-phenyl-quinolin-4-yloxy)-2,12,12,15-tetraoxo-12,16-thia-3,16-diazatricyclo[14.3.0.0^4,6]nonadec-7-en-14-yl]carbamic acid tert-butyl ester]
EC50 [3]: < 50 nM
IC50 [4]: < 50 nM

CC(C)(C)OC(=O)N[C@H]1CCCCC/C=C\[C@@H]2C[C@@]2(C(=O)NS(=O)(=O)C2CC2)NC(=O)[C@@H]2C[C@@H](Oc3ccnc4c(C(F)(F)F)cccc34)CN2C1=O [Compound 33, (1S,4R,6S,14S,18R)-7-cis-[4-Cyclopropanesulfonylaminocarbonyl-2,15-dioxo-18-(8-trifluoromethylquinol-in-4-yloxy)-3,16-diazatricyclo[14.3.0.04,6]nonadec-7-en-14-yl]-carbamic acid tert-butyl ester]
EC50 [3]: < 50 nM
IC50 [4]: < 50 nM

(1S,4R,6S,12S,16R)-7-trans-12-tert-butoxycarbonylamino-16-(7-methoxy-2-phenylquinolin-4-yloxy)-2,13-dioxo-3,14-diazatricyclo[12.3.0.0^4,6]hepta-dec-7-ene-4-carboxylic acid ethyl ester
ring closure, isolated yield ([1]; 13-membered ring, Grubbs catalyst (2 x 75 mg)): 49%
